Measured values: patent US20020037872A1, “N6 heterocyclic 5' modified adenosine derivatives” (CV Therapeutics, Inc., priority 1999, published 2002)
pKi: −log10 of the molar value. Like-named read-outs stand apart in the source and are kept apart here.

Experiments:
[1] = target: T1, A1 receptor (Mesocricetus auratus, UniProt A0A1U8BVR4); assay: Competitive binding assay, DDT1 cell membranes, [3H]CCPA; set-up: species or system hamster; conditions: [3H]CCPA 2 nM
T1 construct: endogenous in cells; host or cells: DDT1 (DDT1 MF-2) hamster vas deferens smooth muscle cells
T1 sequence (A0A1U8BVR4 1-326): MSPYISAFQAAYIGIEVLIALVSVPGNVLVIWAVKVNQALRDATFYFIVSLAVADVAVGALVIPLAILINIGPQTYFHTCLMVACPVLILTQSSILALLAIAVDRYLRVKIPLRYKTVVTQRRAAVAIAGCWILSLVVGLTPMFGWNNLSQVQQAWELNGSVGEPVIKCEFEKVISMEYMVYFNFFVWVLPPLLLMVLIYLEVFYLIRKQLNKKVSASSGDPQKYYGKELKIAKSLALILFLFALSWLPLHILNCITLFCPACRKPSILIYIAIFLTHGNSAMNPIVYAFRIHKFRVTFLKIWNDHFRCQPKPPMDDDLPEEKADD
Method: Cells were subcultured twice weekly by dispersion in Hank's Balanced Salt Solution (HBSS) without the divalent cations and containing 1 mM EDTA. The cells were then seeded in growth medium at a density of 1.2×10^5 cells per plate and experiments were performed 4 days later at approximately one day preconfluence.
(§1) Attached cells were washed twice with HBSS (2×10 ml), scraped free of the plate with the aid of a rubber policeman in 5 ml of 50 mM Tris-HCI buffer pH 7.4 at 4° C. and the suspension homogenized for 10 s. The suspension was then centrifuged at 27,000×g for 10 min. The pellet was resuspended in homogenization buffer by vortexing and centrifuged as described above. The final pellet was resuspended in 1 vol of 50 mM Tris-HCI buffer pH 7.4 containing 5 mM MgCl2 for A1 AdoR assays. For the [^35S]GTPγS binding assay the final pellet was resuspended in 50 mM Tris-HCI pH 7.4 containing 5 mM MgCl2, 100 mM NaCl and 1 mM dithiothreitol. This membrane suspension was then placed in liquid nitrogen for 10 min, thawed and used for assays.
Competitive Binding Assay Pig striatum were prepared by homogenation in 50 mM Tris buffer (5× volume of tissue mass pH=7.4). After centrifilgation at 19,000 rpm for 25 minutes at 4° C., the supernatant was discarded, and the process was repeated twice. Compositions of this invention were assayed to determine their affinity for the A1 receptor in a pig striatum membrane prep or a DDT, membrane prep. Briefly, 0.2 mg of pig striatal membranes or DDT, cell membranes were treated with adenosine deaminase and 50 mM Tris buffer (pH=7.4) followed by mixing. To the pig membranes was added 2 μL of serially diluted DMSO stock solution of the compounds of this invention at concentrations ranging from 100 microM to 10 nM. The control received 2 microL of DMSO alone, then the antagonist [^3H] 8-cyclopentylxanthine (CPX) for pig striatum or the agonist [^3H] 2-chloro-6-cyclopentyladenosine (CCPA) for DDT, membranes in Tris buffer (50 mnM, pH of 7.4) was added to achieve a final concentration of 2 nM. After incubation at 23 C for 2 h, the solutions were filtered using a membrane harvester using multiple washing of the membranes (3×). The filter disks were counted in scintillation cocktail affording the amount of displacement of triated CPX or by the competitive binding compositions of this invention. In the case of the DDT1 cell membranes, some of the determinations of binding affinity (Ki) were made in the presence of Gpp(NH)p as noted in Table 1 (note: Gpp(NH)p shifts the receptor to a low affinity form). Greater than a 5 point curve was used to generate Ki's and the number of experiments is indicated in the column marked in Table 1 below.

[2] = target: T2, A1 adenosine receptor (Mesocricetus auratus, UniProt A0A1U8BVR4); assay: [35S]GTPγS binding assay, A1-agonist stimulated; assay type: biochemical, hamster; conditions: agonist stimulated [35S]GTPγS binding, CPA = 100%
T2 construct: endogenous in cells; host or cells: DDT1 (DDT1 MF-2) hamster vas deferens smooth muscle cells
T2 sequence (A0A1U8BVR4 1-326): T1 sequence (A0A1U8BVR4 1-326)
Method: as §1, with “for assays. The protein content was determined by the method of Bradford (1976) using bovine serum albumin as standard.” for “for assays.”
A1-agonist stimulated [^35S]GTPγS binding was determined by a modification of the method described by Giersckik et al. (1991) and Lorenzen et al. (1993). […] Nonspecific binding was determined by the addition of 10 μM GTPγS. […] Previous reports have shown that agonist stimulated [^35S]GTPγS binding was dependent on the presence of GDP (Gierschik et al., 1991; Lorenzen et al., 1993; Traynor & Nahorski, 1995). […] In saturation experiments, 0.5 nM [^35S]GTPγS was incubated with 0.5-1000 nM GTPγS. At the end of the incubation, each suspension was filtered and the retained radioactivity determined as described above.

[3] = DDT1 cell membranes, read-out: Ki-DDT1 cell membrane
[4] = in presence of Gpp(NH)p (low affinity form), read-out: Ki - DDT1 cell membrane In presence of Gpp (NH)p

Compound	pKi [1, 3]	Emax [2]	pKi [1, 4]	GTPγS [2]
O=C(NC1CCCC1)SCC1OC(n2cnc3c(NC4CCOC4)ncnc32)C(O)C1O [Compound 73, [(5-{6-[((3R)oxolan-3-yl)amino]purin-9-yl}(2S,3S,4R,5R)3,4-dihydroxyoxolan-2-yl)methythio]-N-cyclopentylcarboxamide]	6.74	109%		
CCCCNC(=S)OCC1OC(n2cnc3c(N[C@@H]4CCOC4)ncnc32)C(O)C1O (some centres unmarked) [Compound 48]		70%	6.03	
CCNC(=S)OC[C@H]1O[C@@H](n2cnc3c(N[C@@H]4CCOC4)ncnc32)[C@H](O)[C@@H]1O [Compound 46, 2-{6[((3R)oxolan-3-yl)amino]purin-9-yl}(4S,2R,3R,5R)-5-{[(ethylamino)thioxomethoxy]methyl}oxolane3,4diol]		77%	6.87	
CC(C)NC(=O)OCC1OC(n2cnc3c(N[C@@H]4CCOC4)ncnc32)C(O)C1O (some centres unmarked) [Compound 32]		91%	6.37	
O[C@@H]1[C@H](O)[C@@H](CSC(=S)NC2CCCC2)O[C@H]1n1cnc2c(N[C@@H]3CCOC3)ncnc21 [Compound 75, 2-{6-[((3R)oxolan-3-yl)amino]purin-9-yl}(4S,5S,2R,3R)-5-{[(cyclopentylamino)thioxomethylthio]methyl}oxolane-3,4-diol]	7.21	91%		
CC(C)NC(=S)OC[C@H]1O[C@@H](n2cnc3c(N[C@@H]4CCOC4)ncnc32)[C@H](O)[C@@H]1O [Compound 47, 2-{6-[((3R)oxolan-3-yl)amino]purin-9-yl}(4S,2R,3R,5R)-5({[(methylethyl)amino]thioxomethoxy}methyl)oxolane3,4-diol]		84%	6.96	
O=C(O)CNC(=O)OC[C@H]1O[C@@H](n2cnc3c(N[C@@H]4CCOC4)ncnc32)[C@H](O)[C@@H]1O [Compound 68, 2-{[(5-{6-[((3R)oxolan-3-yl)amino]purin-9-yl}(3S,2R,4R,5R)-3,4-dihydroxyoxolan-2-yl)methoxy]carbonylamino}acetic acid]		76%		
CCCCNC(=O)OCC1OC(n2cnc3c(N[C@@H]4CCOC4)ncnc32)C(O)C1O (some centres unmarked) [Compound 27]	5.79	44%	6.95	
CN(C)C(=S)OC[C@H]1O[C@@H](n2cnc3c(N[C@@H]4CCOC4)ncnc32)[C@H](O)[C@@H]1O [Compound 53, 2-{6-[((3R)oxolan-3-yl)amino]purin-9-yl}(4S,2R,3R,5R)-5-{[(dimethylamino)thioxomethoxy]methyl}oxolane-3,4-diol]	6.61	85%	5.68	
CNC(=O)OC[C@H]1O[C@@H](n2cnc3c(N[C@@H]4CCOC4)nc(Cl)nc32)[C@H](O)[C@@H]1O [Compound 13, [(5-{6-[((3R)oxolan-3-yl)amino]-2-chloropurin-9-yl}(3S,2R,4R,5R)3,4dihydroxyoxolan-2-yl)methoxy]-N-methylcarboxamide]	6.89	77%		
CNC(=S)OC[C@H]1O[C@@H](n2cnc3c(N[C@@H]4CCOC4)ncnc32)[C@H](O)[C@@H]1O [Compound 45, 2-{6-[((3R)oxolan-3-yl)amino]purin-9-yl}(4S,2R,3R,5R)-5 {1(methylamino)thioxomethoxylmethyl}oxolane3,4diol]		77%	6.85	
O[C@@H]1[C@H](O)[C@@H](COC(=S)N2CCCC2)O[C@H]1n1cnc2c(N[C@@H]3CCOC3)ncnc21 [Compound 52]			5.95	77%
OC1C(COC(=S)NCc2ccccc2)OC(n2cnc3c(N[C@@H]4CCOC4)ncnc32)C1O (some centres unmarked) [Compound 54]		93%	6.64	
OC1C(COC(=S)NC2CCCCC2)OC(n2cnc3c(N[C@@H]4CCOC4)ncnc32)C1O (some centres unmarked) [Compound 55]	6.60	82%	6.02	
CCCNC(=O)OCC1OC(n2cnc3c(N[C@@H]4CCOC4)ncnc32)C(O)C1O (some centres unmarked) [Compound 26]		73%	6.29	
C=CCNC(=S)OCC1OC(n2cnc3c(N[C@@H]4CCOC4)ncnc32)C(O)C1O (stereo partly drawn) [Compound 60, 2-{6-[((3R)oxolan-3-yl)amino]purin-9-yl}(4S,2R,3R,5R)-5-{[(prop-2-enylaminio)thioxomethoxy]methyl}oxolane3,4diol]		77%	6.62	
CNC(=O)SC[C@H]1O[C@@H](n2cnc3c(N[C@@H]4CCOC4)ncnc32)[C@H](O)[C@@H]1O [Compound 22, [(5-{6-[((3R)oxolan-3-yl)amino]purin-9-yl}(2S,3S,4R,5R)-3,4&hydroxyoxolan-2-yl)methythio]-N-methylcarboxamide]	7.44	98%		
CNC(=S)NC[C@H]1O[C@@H](n2cnc3c(N[C@@H]4CCOC4)ncnc32)[C@H](O)[C@@H]1O [Compound 77, 2-{6[((3R)oxolan-3-yl)amino]purin-9-yl}(4S,2R,3R,5R)5-({[(methylamino)thioxomethyl]amino}methyl)oxolane-3,4diol]	6.95	101%		
CCCNC(=S)OC[C@H]1O[C@@H](n2cnc3c(N[C@@H]4CCOC4)ncnc32)[C@H](O)[C@@H]1O [Compound 49, 2-{6-[((3R)oxolan-3-yl)amino]purin-9-yl}(4S,2R,3R,5R)-5 {[(propylamino)thioxomethoxy]methyl}oxolane3,4-diol]		89%	6.84	
OC1C(CNC(=S)NC2CCCC2)OC(n2cnc3c(NC4CCOC4)ncnc32)C1O [Compound 78, 2-{6-[((3R)oxolan-3-yl)amino]purin-9-yl}(4S,2R,3R,5R)-5-({[(cyclopentylamnino)thioxomethyl]amino}methyl)oxolane3,4diol]	6.45	95%		
OC1C(COC(=S)N2CCCCC2)OC(n2cnc3c(N[C@@H]4CCOC4)ncnc32)C1O (some centres unmarked) [Compound 50]	6.19	88%	5.71	
O=C(O)CCNC(=O)OCC1OC(n2cnc3c(N[C@@H]4CCOC4)ncnc32)C(O)C1O (some centres unmarked) [Compound 67]	5.65	59%		
